According to patent EP0565593B1, “REDUCING PESTICIDAL INTERACTIONS IN CROPS” (priority 1990, dated 1992):
Where “and” joins values, the source holds several entries; their conditions need not be identical. Equal entries are not always repeated. Where two headings read alike, the source gives them in different places.

What was measured:
Corn [1] = details: for antidote activity: COUNTER with BEACON, PURSUIT (POE) or XRD-498 (PPI), Tables 29-37
Velvetleaf (VELE) = assay type: in vivo, Abutilon theophrasti
Shattercane (SHCA) = assay type: in vivo
Corn [2] = assay: Greenhouse test, combination of Procedures II and III: insecticide in-furrow or in cover layer, herbicide and antidote incorporated in cover layer (Examples 1-3, 6; Tables 1-3, 6); assay type: in vivo; details: 3 weeks
[3] = […], 13 days after planting, 8 days after herbicide
[4] = Antidote 4.48 + Biocide No. 1 8.96 Kg/Ha PPI, Herb. No. 8 0.07, 5 DAP, before herbicide application
[5] = Antidote 4.48 + Biocide No. 1 8.96 Kg/Ha PPI, Herb. No. 8 0.07 POE, 13 DAP
[6] = Antidote 4.48 + Biocide No. 1 8.96 Kg/Ha PPI, Herbicide No. 7 0.28 POE, 13 days after planting
[7] = Table 14: Herbicide No. 7 (ACCENT) 0.84 Kg/Ha POE + Biocide No. 2 8.96 Kg/Ha PPI + antidote 4.48 Kg/Ha PPI, 13 days after planting, 8 days after herbicide
[8] = […], observed 10 days after herbicide application
[9] = Herb. […], 5 DAP, before herbicide application

O=C(O)c1sc(Cl)nc1C(F)(F)F [Antidote No. 65, 5-Thiazolecarboxylic acid, 2-chloro-4-(trifluoromethyl)-]
antidote activity (Corn [1]): slightly more active than other thiazoles tested

N#CCON=C(C#N)c1ccccc1 [Antidote No. 9, Benzeneacetonitrile, alpha-<(cyano-methoxy)imino>-]
antidote activity (Corn [1]): active safeners

O=C(OCc1ccccc1)c1sc(Cl)nc1C(F)(F)F [compound 7]
% Inhibition VELE (Velvetleaf (VELE); [3]): 65%
% Inhibition VELE (Velvetleaf (VELE); […], observed 7 days after POE (Table 35)): 75%

C=CCC(C)(C#N)Sc1ccc(C)cc1 (centres unmarked) [compound 32]
% Inhibition 5 DAP SHCA (Shattercane (SHCA); [4]): 30%
% Inhibition 13 DAP SHCA (Shattercane (SHCA); [5]): 85%
% Inhibition SHCA (Shattercane (SHCA); [6]): 70%
% Inhibition SHCA (Shattercane (SHCA); [7]): 70%
% Inhibition SHCA (Shattercane (SHCA); [3]): 95%
% Inhibition SHCA (Shattercane (SHCA); [8]): 50%
% Inhibition 5 DAP SHCA (Shattercane (SHCA); in vivo): 30%
% Inhibition 13 DAP SHCA (Shattercane (SHCA); in vivo): 80%
% Inhibition 5 DAP VELE (Velvetleaf (VELE); [4]): 0%
% Inhibition 13 DAP VELE (Velvetleaf (VELE); [5]): 90%
% Inhibition VELE (Velvetleaf (VELE); [6]): 65%
% Inhibition 5 DAP VELE (Velvetleaf (VELE); [9]): 0%
% Inhibition VELE (Velvetleaf (VELE); [7]): 60%
% Inhibition VELE (Velvetleaf (VELE); [3]): 70%
% Inhibition VELE (Velvetleaf (VELE); [8]): 80%
% Inhibition 5 DAP VELE (Velvetleaf (VELE); in vivo): 0%
% Inhibition 13 DAP VELE (Velvetleaf (VELE); in vivo): 85%
% Inhibition 5 DAP Corn (Corn [1]; [4]): 0%
% Inhibition 13 DAP Corn (Corn [1]; [5]): 75%
% Inhibition Corn (Corn [1]; [6]): 55%
% Inhibition 5 DAP Corn (Corn [1]; [9]): 0%
% Inhibition Corn (Corn [1]; [7]): 35%
% Inhibition Corn (Corn [1]; [3]): 25%
% Inhibition Corn (Corn [1]; [8]): 70%
% Inhibition 5 DAP Corn (Corn [1]; in vivo): 20%
% Inhibition 13 DAP Corn (Corn [1]; in vivo): 70%
% Inhibition Corn (Corn [1]; in vivo): 65% and 55% and 45%
activity in reducing corn injury (Corn [1]; primisulfuron POE + biocides PPI, Tables 8-10): either inactive or weakly active

CCSC(=O)COC(c1ccccc1)c1ccccc1 [Antidote No. 51, Ethanethioic acid, 2-(diphenyl-methoxy)-, S-ethyl ester]
antidote activity (Corn [1]): most active

Cc1c(F)c(F)c(COC(=O)[C@@H]2[C@H](/C=C(\Cl)C(F)(F)F)C2(C)C)c(F)c1F (racemic) [Biocide No. 3, 2,3,5,6-tetrafluoro-4-methylbenzyl-(Z(-(1 RS, 3RS)-3-(2-Chloro-3,3,3-trifluoroprop-1-ethyl)-2,2-dimethyl-cyclopropane carboxylate, reference compound]
% Injury Corn (Corn [2]; Ex. 3: Insecticide 3 (227g) alone): 3%

CNC(=O)Oc1cccc2c1OC(C)(C)C2 [Biocide No. 4, 2,3-Dihydro-2,2-dimethyl-7-benzofuranyl methylcarbamate, reference compound]
% Injury Corn (Corn [2]; Ex. 3: Insecticide 4 (227 g) alone): 5%
